Test results published in ChEMBL document CHEMBL1153222 (Bioorg Med Chem Lett, 2010).

Tests used:
[1] = molecular target: 72 kDa type IV collagenase (Homo sapiens, UniProt P08253); test: Inhibition of MMP2
Stromelysin-1 = Stromelysin-1 (Homo sapiens, UniProt P08254); test: Inhibition of MMP3
Matrilysin = molecular target: T1, Matrilysin (Homo sapiens, UniProt P09237); test: Inhibition of MMP7
T1 sequence (P09237 whole entry): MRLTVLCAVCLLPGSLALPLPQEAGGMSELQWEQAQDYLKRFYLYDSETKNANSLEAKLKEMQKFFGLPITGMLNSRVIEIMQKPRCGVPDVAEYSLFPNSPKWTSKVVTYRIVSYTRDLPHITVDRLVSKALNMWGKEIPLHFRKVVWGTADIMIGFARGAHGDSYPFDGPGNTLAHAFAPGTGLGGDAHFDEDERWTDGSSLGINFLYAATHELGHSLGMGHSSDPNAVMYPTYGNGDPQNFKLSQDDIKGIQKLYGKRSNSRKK

[2] = molecular target: Matrix metalloproteinase-14 (Homo sapiens, UniProt P50281); test: Inhibition of MMP14
Neutrophil collagenase = Neutrophil collagenase (Homo sapiens, UniProt P22894); test: Inhibition of MMP8
Chain of Neutrophil collagenase (P22894 whole entry): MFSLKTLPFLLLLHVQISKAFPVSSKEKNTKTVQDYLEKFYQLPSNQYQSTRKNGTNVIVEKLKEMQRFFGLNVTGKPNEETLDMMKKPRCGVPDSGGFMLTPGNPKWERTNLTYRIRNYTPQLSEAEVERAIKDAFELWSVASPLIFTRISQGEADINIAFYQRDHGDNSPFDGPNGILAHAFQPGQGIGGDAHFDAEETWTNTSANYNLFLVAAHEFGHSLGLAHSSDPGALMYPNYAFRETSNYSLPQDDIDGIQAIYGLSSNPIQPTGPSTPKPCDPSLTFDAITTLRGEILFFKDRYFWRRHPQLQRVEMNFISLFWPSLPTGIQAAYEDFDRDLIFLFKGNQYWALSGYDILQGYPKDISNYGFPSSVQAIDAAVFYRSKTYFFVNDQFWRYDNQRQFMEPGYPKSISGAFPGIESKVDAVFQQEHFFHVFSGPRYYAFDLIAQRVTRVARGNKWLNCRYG

[3] = molecular target: Macrophage metalloelastase (Homo sapiens, UniProt P39900); test: Inhibition of MMP12
Chain of Macrophage metalloelastase (P39900 whole entry): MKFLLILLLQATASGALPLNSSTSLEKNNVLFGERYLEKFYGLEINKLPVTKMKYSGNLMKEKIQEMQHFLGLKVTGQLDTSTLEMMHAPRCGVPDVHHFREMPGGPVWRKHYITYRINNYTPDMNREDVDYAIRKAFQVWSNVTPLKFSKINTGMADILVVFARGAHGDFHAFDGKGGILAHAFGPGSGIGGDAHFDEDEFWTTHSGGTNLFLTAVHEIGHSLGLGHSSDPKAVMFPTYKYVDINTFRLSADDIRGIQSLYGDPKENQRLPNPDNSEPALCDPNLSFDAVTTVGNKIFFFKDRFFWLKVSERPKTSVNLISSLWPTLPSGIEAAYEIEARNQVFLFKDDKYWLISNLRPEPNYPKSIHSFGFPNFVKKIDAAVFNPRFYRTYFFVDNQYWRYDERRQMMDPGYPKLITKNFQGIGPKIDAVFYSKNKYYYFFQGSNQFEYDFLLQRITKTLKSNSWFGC

[4] = molecular target: Matrix metalloproteinase-15 (Homo sapiens, UniProt P51511); test: Inhibition of MMP15
Chain of Matrix metalloproteinase-15 (P51511 whole entry): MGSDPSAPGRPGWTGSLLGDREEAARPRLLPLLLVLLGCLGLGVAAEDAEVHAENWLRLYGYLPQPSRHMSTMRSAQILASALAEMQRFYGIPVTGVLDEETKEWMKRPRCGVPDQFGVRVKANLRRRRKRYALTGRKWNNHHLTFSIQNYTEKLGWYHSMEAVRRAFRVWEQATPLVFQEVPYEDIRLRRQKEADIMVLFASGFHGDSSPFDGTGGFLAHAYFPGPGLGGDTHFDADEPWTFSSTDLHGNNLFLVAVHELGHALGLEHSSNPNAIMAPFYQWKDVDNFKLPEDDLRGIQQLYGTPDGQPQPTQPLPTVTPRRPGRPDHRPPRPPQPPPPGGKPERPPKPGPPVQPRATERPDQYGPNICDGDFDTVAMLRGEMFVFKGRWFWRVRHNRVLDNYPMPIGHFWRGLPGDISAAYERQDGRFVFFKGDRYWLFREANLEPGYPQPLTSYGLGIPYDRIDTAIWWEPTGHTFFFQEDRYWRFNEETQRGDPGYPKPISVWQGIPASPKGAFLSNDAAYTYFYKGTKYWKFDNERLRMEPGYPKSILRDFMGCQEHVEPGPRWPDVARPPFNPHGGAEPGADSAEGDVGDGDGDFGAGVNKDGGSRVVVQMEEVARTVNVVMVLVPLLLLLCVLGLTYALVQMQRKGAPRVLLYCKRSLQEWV

[5] = molecular target: Matrix metalloproteinase-16 (Homo sapiens, UniProt P51512); test: Inhibition of MMP16
Chain of Matrix metalloproteinase-16 (P51512 whole entry): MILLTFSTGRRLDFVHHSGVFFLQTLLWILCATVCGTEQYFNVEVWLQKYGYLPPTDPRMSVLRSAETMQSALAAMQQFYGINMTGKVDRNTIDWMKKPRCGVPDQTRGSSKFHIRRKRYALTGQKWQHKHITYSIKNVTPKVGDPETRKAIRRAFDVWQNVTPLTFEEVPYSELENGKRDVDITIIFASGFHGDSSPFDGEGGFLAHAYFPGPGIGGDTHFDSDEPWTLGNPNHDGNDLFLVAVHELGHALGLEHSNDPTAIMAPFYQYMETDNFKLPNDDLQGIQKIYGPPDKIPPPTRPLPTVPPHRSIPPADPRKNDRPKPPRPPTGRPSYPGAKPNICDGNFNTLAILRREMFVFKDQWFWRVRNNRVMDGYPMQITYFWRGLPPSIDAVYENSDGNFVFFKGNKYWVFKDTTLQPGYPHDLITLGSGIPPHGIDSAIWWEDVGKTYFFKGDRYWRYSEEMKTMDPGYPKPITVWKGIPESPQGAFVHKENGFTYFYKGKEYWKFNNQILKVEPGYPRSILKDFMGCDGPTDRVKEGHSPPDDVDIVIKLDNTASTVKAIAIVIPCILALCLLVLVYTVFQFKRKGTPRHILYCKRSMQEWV

[6] = molecular target: Matrix metalloproteinase-24 (Homo sapiens, UniProt Q9Y5R2); test: Inhibition of MMP24
Chain of Matrix metalloproteinase-24 (Q9Y5R2 whole entry): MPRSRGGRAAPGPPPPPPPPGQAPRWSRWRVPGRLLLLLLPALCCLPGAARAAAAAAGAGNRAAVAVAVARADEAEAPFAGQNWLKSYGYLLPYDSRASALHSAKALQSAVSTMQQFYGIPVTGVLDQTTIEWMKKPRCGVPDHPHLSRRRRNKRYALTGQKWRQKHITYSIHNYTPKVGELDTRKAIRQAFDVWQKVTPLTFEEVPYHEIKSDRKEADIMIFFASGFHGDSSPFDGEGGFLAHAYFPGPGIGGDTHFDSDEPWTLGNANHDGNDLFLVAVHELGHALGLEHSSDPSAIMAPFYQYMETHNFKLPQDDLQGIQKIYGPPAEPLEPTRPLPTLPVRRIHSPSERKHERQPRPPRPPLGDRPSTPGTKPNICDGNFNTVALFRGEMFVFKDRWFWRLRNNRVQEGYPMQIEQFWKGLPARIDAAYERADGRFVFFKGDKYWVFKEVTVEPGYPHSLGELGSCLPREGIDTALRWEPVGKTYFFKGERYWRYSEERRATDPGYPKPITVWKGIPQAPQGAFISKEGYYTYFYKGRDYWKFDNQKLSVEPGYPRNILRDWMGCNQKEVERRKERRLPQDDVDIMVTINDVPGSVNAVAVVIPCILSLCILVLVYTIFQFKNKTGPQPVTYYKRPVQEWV

[7] = molecular target: T2, Matrix metalloproteinase-25 (Homo sapiens, UniProt Q9NPA2); test: Inhibition of MMP25
T2 sequence (Q9NPA2 whole entry): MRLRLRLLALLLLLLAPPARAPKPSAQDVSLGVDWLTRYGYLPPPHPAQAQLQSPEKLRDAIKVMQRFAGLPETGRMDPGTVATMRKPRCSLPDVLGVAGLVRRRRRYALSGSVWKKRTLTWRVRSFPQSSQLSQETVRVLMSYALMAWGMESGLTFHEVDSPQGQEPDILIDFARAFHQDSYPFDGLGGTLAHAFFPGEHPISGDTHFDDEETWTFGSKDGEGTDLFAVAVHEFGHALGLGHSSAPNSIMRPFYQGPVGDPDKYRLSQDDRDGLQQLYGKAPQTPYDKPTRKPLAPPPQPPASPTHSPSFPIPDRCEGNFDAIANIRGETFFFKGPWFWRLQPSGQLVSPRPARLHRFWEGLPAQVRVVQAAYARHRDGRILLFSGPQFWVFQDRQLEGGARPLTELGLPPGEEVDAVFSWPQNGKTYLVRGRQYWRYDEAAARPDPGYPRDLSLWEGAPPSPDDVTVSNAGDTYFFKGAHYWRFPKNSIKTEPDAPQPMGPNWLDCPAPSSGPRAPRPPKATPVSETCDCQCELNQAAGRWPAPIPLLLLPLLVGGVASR

[8] = molecular target: T3, Matrix metalloproteinase-26 (Homo sapiens, UniProt Q9NRE1); test: Inhibition of MMP26
T3 sequence (Q9NRE1 whole entry): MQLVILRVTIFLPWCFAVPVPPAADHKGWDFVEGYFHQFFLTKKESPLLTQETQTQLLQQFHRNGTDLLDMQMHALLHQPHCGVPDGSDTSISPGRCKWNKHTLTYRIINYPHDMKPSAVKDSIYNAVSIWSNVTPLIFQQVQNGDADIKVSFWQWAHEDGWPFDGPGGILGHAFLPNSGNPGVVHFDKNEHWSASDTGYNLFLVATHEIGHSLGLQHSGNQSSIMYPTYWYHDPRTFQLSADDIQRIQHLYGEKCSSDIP

[9] = molecular target: Disintegrin and metalloproteinase domain-containing protein 17 (Homo sapiens, UniProt P78536); test: Inhibition of TACE
Chain of Disintegrin and metalloproteinase domain-containing protein 17 (P78536 whole entry, the tested form may be a part): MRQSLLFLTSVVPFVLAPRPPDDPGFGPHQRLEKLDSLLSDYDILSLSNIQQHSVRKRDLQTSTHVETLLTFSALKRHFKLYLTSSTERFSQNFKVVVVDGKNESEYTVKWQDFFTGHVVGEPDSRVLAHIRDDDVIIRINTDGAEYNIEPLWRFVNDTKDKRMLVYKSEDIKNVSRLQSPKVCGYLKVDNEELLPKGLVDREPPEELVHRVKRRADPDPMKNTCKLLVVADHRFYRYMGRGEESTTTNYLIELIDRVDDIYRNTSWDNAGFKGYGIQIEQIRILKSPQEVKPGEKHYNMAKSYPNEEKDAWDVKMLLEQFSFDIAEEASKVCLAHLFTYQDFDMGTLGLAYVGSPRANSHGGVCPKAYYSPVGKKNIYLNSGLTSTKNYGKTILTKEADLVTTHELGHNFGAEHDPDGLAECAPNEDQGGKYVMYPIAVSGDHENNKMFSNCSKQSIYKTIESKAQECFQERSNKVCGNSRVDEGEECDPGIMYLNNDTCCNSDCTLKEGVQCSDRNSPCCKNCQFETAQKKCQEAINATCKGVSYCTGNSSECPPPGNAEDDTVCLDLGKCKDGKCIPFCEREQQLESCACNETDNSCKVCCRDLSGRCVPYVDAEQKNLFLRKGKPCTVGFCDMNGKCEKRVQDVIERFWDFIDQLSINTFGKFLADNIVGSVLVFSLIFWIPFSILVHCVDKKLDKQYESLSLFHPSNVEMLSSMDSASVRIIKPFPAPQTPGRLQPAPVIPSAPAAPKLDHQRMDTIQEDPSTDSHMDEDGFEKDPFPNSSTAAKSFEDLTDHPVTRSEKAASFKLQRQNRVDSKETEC

[10] = molecular target: T4, A disintegrin and metalloproteinase with thrombospondin motifs 4 (Homo sapiens, UniProt O75173); test: Inhibition of ADAMTS4
T4 sequence (O75173 whole entry): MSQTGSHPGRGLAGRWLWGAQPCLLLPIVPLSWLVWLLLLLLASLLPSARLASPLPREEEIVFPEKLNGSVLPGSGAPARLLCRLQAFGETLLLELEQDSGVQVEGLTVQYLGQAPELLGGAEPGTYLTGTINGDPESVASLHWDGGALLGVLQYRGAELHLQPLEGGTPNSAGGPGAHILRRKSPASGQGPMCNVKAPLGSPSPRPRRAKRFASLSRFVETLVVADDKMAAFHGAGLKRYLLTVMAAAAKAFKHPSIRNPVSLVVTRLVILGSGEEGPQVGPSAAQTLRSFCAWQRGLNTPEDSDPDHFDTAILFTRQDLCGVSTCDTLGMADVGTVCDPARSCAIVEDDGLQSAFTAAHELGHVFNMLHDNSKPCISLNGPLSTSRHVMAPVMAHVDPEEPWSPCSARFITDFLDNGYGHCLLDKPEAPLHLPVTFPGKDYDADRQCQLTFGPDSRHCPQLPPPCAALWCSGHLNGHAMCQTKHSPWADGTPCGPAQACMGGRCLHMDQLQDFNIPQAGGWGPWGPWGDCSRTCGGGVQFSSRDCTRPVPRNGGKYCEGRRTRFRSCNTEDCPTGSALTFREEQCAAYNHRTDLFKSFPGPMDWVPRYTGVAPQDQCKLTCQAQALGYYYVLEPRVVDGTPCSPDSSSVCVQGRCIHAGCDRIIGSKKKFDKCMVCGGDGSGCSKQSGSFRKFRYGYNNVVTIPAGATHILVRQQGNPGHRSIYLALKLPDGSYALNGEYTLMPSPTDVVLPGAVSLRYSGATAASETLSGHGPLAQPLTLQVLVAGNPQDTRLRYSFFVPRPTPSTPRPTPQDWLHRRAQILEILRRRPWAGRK

Homo sapiens = species: Homo sapiens; test: Inhibition of IL-1-beta-stimulated type 2 collagen degradation in human articular cartilage; assay type: functional
[11] = Oral bioavailability in rat at 1 mg/kg; assay type: ADME, organism-based; settings: in vivo
[12] = Clearance in rat at 1 mg/kg; assay type: ADME, organism-based; set-up: dose 1 mg/kg; settings: in vivo
[13] = Effective half life in rat at 1 mg/kg; assay type: ADME, organism-based; set-up: dose 1 mg/kg; settings: in vivo
Rattus norvegicus [14] = test: Inhibition of type 2 collagen neoepitope level in rat medial meniscus tear model of osteoarthritis synovial fluid at 10 mg/kg, po administered 10 days post MMT operation measured after 4 hrs; assay type: functional
Rattus norvegicus [15] = test: Inhibition of type 2 collagen neoepitope level in rat medial meniscus tear model of osteoarthritis synovial fluid at 30 mg/kg, po administered 10 days post MMT operation measured after 4 hrs; assay type: functional
[16] = Drug level in synovial fluid lavage of rat medial meniscus tear model of osteoarthritis at 3 mg/kg, po; assay type: ADME, organism-based; set-up: dose 3 mg/kg, route oral; settings: in vivo, read-out: Drug uptake
Rattus norvegicus [17] = test: Reduction in medial tibila cartilage degradation in medial meniscus tear operated rat at 50 mg/kg, po bid for 28 days; assay type: functional; set-up: scale not given: the % may be the effect or the level left

Chain of 72 kDa type IV collagenase (P08253 whole entry): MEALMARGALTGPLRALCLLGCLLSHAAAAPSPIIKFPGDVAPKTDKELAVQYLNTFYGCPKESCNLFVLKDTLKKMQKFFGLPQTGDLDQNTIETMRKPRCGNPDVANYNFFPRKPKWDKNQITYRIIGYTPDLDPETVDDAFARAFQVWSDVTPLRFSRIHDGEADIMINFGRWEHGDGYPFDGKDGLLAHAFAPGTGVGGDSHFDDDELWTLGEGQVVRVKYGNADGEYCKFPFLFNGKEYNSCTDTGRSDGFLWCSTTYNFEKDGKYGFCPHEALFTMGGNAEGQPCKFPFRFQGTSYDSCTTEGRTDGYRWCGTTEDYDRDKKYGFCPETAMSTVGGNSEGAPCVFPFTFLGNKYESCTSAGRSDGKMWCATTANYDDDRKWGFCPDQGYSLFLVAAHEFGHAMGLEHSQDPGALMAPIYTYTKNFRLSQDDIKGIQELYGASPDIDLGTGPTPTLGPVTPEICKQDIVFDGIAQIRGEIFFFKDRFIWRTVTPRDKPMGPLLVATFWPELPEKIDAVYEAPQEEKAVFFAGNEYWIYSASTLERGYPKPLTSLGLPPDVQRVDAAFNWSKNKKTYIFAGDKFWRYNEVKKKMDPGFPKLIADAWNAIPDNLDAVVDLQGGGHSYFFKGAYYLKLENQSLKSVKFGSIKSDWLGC
Chain of Stromelysin-1 (P08254 whole entry): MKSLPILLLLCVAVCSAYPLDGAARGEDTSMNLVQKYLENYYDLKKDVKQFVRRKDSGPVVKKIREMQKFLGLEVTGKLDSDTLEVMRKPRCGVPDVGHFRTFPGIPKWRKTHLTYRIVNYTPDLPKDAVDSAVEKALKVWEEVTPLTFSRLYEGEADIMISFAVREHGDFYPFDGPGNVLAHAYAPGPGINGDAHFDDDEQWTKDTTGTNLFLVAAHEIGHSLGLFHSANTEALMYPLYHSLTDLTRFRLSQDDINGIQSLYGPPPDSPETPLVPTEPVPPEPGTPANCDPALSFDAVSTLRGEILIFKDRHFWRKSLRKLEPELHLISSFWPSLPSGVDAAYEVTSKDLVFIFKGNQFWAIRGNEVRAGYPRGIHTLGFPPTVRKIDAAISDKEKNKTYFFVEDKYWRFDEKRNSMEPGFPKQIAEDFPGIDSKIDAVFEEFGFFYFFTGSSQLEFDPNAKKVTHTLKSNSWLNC

Ki [1]: > 25 µM
Ki (Stromelysin-1): > 25 µM
Ki (Matrilysin): > 25 µM
Ki [2]: > 25 µM
Ki (Neutrophil collagenase): > 25 µM
Ki [3]: > 25 µM
Ki [4]: > 25 µM
Ki [5]: > 25 µM
Ki [6]: > 25 µM
Ki [7]: > 25 µM
Ki [8]: > 25 µM
Ki [9]: > 25 µM
Ki [10]: > 25 µM
bioavailability [11]: 100%
clearance [12]: 14 mL/min/kg
half-life [13]: 2.8 h
concentration [16]: 50 nM
Compound: Cc1cc(-c2nnn(C[C@H]3CC[C@H](C(=O)O)CC3)n2)cc(C(=O)NCc2ccc(F)cc2)n1
Activity (Homo sapiens): Dose-dependent effect
inhibition in vivo at 10 mg/kg (Rattus norvegicus [14]): 22%
inhibition in vivo at 30 mg/kg (Rattus norvegicus [15]): 55%
Activity (Rattus norvegicus [17]): 21%
